Experimental findings from article PMC5610936 (Biochemical pharmacology, 2017) are described below.

Where two headings read alike, the source gives them in different places.

The subject of series [1] is HT-29 cells. As to the kind of experiment: MTT cell growth assay. The conditions noted are these: for IC50: Homo sapiens, HT-29, 72 h, read-out: IC50 inhibition of HT-29 cell proliferation; for 50% growth inhibition of HT-29 cells reached within 72 h: 100 nM, time course up to 72 h. Format: cell-based, human.
Series [2] has as its system HT-29 cells.
The subject of series [3] is HT-29 cells. As to the kind of experiment: Seahorse oxygen consumption rate / extracellular acidification rate. Format: cell-based, human.
The test system of series [4] is HT-29 cells. As to the kind of experiment: Intracellular ROS by flow cytometry with CM-H2-DCF-DA. Format: cell-based, human. The conditions noted are these: 24 h; for change in DCF fluorescence (intracellular ROS) vs vehicle: 50 nM; for intracellular ROS (DCF) after high concentration: 500 nM. For orientation: A flow cytometer gives signals particle by particle.
Series [5] concerns HT-29 cells. As to the kind of experiment: Colony formation. Format: cell-based, human.
Series [6] addresses T1, NOX2 (Homo sapiens, UniProt P04839). As to the kind of experiment: PMA-induced superoxide anion luminescence assay, PMNs. Format: cell-based.
The target in series [7] is T1, NOX2. As to the kind of experiment: PMA-induced superoxide anion luminescence assay, differentiated HL-60 cells. Format: cell-based.
Series [8] concerns HT-29 cells. As to the kind of experiment: HT-29 cell growth by cell counting after SOD/catalase. Format: cell-based, human. The conditions noted are these: 96 h, 0-2000 U/ml, significant at ≥ 500 U/ml.
Setting [9] is: Homo sapiens, HT-29, 1 h, read-out: 60-min treatment IC50, cellular respiration (OCR).
[10] abbreviates: Homo sapiens, HT-29, 24 h, read-out: 24-h treatment IC50, cellular respiration (OCR).
The mark [11] stands for this setting: Homo sapiens, HT-29, 240 h, read-out: 10-day treatment IC50, colony formation.
Setting [12] is: Homo sapiens, HT-29, read-out: 2-h treatment IC50, colony formation.
Setting [13] is: ratio of NOX2 IC50 values, PMN vs HL-60.
Where [14] appears, read: read-out: 24-h treatment IC50, cellular respiration (OCR), HT-29, 24 h.
Where [15] appears, read: read-out: 30-min treatment IC50, cellular respiration (OCR), HT-29, 30 min.
Where [16] appears, read: read-out: 60-min treatment IC50, cellular respiration (OCR), HT-29, 60 min.
Where [17] appears, read: read-out: 10-day treatment IC50, colony formation, HT-29, 10-day exposure.
Setting [18] is: Homo sapiens, HT-29, 1 h, read-out: 60-min treatment IC50, cellular respiration (OCR), HT-29, 60 min.
Setting [19] is: Homo sapiens, HT-29, 24 h, read-out: 24-h treatment IC50, cellular respiration (OCR), HT-29, 24 h.

With `c1ccc2c(c1)[I+]c1ccccc1-2` [DPI, Diphenylene iodonium, reference compound], the IC50 is around 450 nM in the series on HT-29 cells [1]; 4570 nM in the series with HT-29 cells [3] (setting [9]); 200 ± 245 nM in the series with HT-29 cells [3] (setting [10]); 39 ± 23 nM in the series on HT-29 cells [5] (setting [11]); 9260 nM with HT-29 cells [5] (setting [12]). Moreover, the “effect on mitochondrial ROS production (MitoSox)” value is “right shift in MitoSox fluorescence” in the series on HT-29 cells [2] (1 μM, 2 h) and “no effect” in the series on HT-29 cells [2] (concentrations ≤ 200 nM, 24 h). Moreover, the “decrease in oxygen consumption” value in the series with HT-29 cells [3] (2 μM, immediate effect) turned out to be 80%. In addition, in the series with HT-29 cells [3] (HT-29, 24-h treatment), the “concentration at which ECAR increased” value is given as 316 nM. In addition, the “concentration at which OCR began to decrease” value in the series on HT-29 cells [3] (HT-29, 24-h treatment) worked out at 31.6 nM. Further, the “change in DCF fluorescence (intracellular ROS) vs vehicle” value (shortened to “change in DCF fluorescence”) in the series with HT-29 cells [4] was “left-shift (decrease) in DCF fluorescence”. In the series with HT-29 cells [4], the “intracellular ROS (DCF) after high concentration” value (from here on “intracellular ROS (DCF)”) is listed as “increases in intracellular ROS”.

Take `Brc1ccc2c(c1)[I+]c1cc(Br)ccc1-2.[Br-]` [compound 104, Dibenziodolium, 3,7-dibromo-, bromide]: the “50% growth inhibition of HT-29 cells reached within 72 h” value in the series with HT-29 cells [1] is “achieved 50% growth inhibition”. Also, the IC50 is 150 to 250 nM in the series with HT-29 cells [1]; 481 ± 44 nM on NOX2 [6]; 1470 nM with HT-29 cells [3] (setting [9]); 74 ± 54 nM with HT-29 cells [3] (setting [10]); 9 ± 2 nM in the series on HT-29 cells [5] (setting [11]); 1220 nM in the series on HT-29 cells [5] (setting [12]). Also, the “fold more potent in HL-60 leukemia line compared to PMNs” value (from here on “fold more potent in HL-60 leukemia line”) at NOX2 [7] (setting [13]) is reported as 2- to 5 fold. Also, the “change in DCF fluorescence” value with HT-29 cells [4] was “left-shift (decrease) in DCF fluorescence”. For the same molecule, the “intracellular ROS (DCF)” value in the series on HT-29 cells [4] is on record as “did not demonstrate this effect”.

Turning to `COC(=O)c1ccc2c(c1)[I+]c1ccccc1-2.Cc1ccc(S(=O)(=O)[O-])cc1` [compound 140, Dibenz[b,d]iodolium, 3-(methoxycarbonyl)-, salt with 4-methyl-benzenesulfonic acid (1:1)], the “fold more potent in HL-60 leukemia line” value on NOX2 [7] (setting [13]) is 2- to 5 fold. The IC50 with HT-29 cells [3] (setting [14]) was 76 ± 21 nM; in the series on HT-29 cells [3] (setting [15]), 678 ± 201 nM; in the series on HT-29 cells [3] (setting [16]) it was 475 ± 116 nM; in the series with HT-29 cells [5] (setting [17]), 40 ± 32 nM. Further, the “intracellular ROS (DCF)” value with HT-29 cells [4] is recorded as “did not demonstrate this effect”.

For `O=[N+]([O-])c1ccc2c(c1)[I+]c1cc([N+](=O)[O-])ccc1-2.[Br-]` [compound 392, Dibenziodolium, 3,7-dinitro-, bromide], the IC50 was 850 ± 197 nM at NOX2 [6]; 2180 nM in the series with HT-29 cells [3] (setting [18]); around 800 nM with HT-29 cells [3] (setting [19]); 801 ± 194 nM with HT-29 cells [3] (setting [14]); 27 ± 28 nM in the series with HT-29 cells [5] (setting [11]). Besides, the “fold more potent in HL-60 leukemia line” value on NOX2 [7] is 2- to 5 fold. Also, the “effect on cellular metabolic activity (OCR/ECAR)” value with HT-29 cells [3] (24 h, concentrations ≤ 316 nM) is on record as “no adverse effects”. Besides, the “change in DCF fluorescence” value in the series with HT-29 cells [4] is “left-shift (decrease) in DCF fluorescence”. The “intracellular ROS (DCF)” value with HT-29 cells [4] is on record as “did not demonstrate this effect”.

For the molecule `O=[N+]([O-])c1ccc2c(c1)[I+]c1ccccc1-2.[Cl-]` [compound 428, Dibenz[b,d]iodolium, 3-nitro-, chloride], in the series on HT-29 cells [1], the “50% growth inhibition of HT-29 cells reached within 72 h” value is reported as “achieved 50% growth inhibition”. Besides, the IC50 with HT-29 cells [3] (setting [18]) stood at 211 ± 33 nM; in the series with HT-29 cells [3] (setting [19]) it was 45 ± 23 nM; in the series with HT-29 cells [5] (setting [11]), 11 ± 6 nM; in the series on HT-29 cells [5] (setting [12]), 77 ± 12 nM; in the series with HT-29 cells [5] (Homo sapiens, HT-29, read-out: 6-h treatment IC50, colony formation) it was 29 ± 23 nM. Moreover, the “change in DCF fluorescence” value in the series with HT-29 cells [4] was “left-shift (decrease) in DCF fluorescence”. Further, the “intracellular ROS (DCF)” value in the series on HT-29 cells [4] was “increases in intracellular ROS”.

For the molecule `O=[N+]([O-])c1cccc2c1-c1c(cccc1[N+](=O)[O-])[I+]2.[Br-]` [compound 521, Dibenziodolium, 1,9-dinitro-, salt with bromide (1:1)], the “24-h treatment IC50, cellular respiration (OCR)” value with HT-29 cells [3] (HT-29, 24 h) is listed as “No effect”. In addition, the IC50 amounted to 1670 nM with HT-29 cells [3] (setting [15]), 1000 nM in the series with HT-29 cells [3] (setting [16]) and 488 ± 101 nM in the series with HT-29 cells [5] (setting [17]).

B1: catalase: ROS detoxifying enzyme, human catalase (Sigma Aldrich) (protein, UniProt P04040 2-527, looked up)
Catalase: ADSRDPASDQMQHWKEQRAAQKADVLTTGAGNPVGDKLNVITVGPRGPLLVQDVVFTDEMAHFDRERIPERVVHAKGAGAFGYFEVTHDITKYSKAKVFEHIGKKTPIAVRFSTVAGESGSADTVRDPRGFAVKFYTEDGNWDLVGNNTPIFFIRDPILFPSFIHSQKRNPQTHLKDPDMVWDFWSLRPESLHQVSFLFSDRGIPDGHRHMNGYGSHTFKLVNANGEAVYCKFHYKTDQGIKNLSVEDAARLSQEDPDYGIRDLFNAIATGKYPSWTFYIQVMTFNQAETFPFNPFDLTKVWPHKDYPLIPVGKLVLNRNPVNYFAEVEQIAFDPSNMPPGIEASPDKMLQGRLFAYPDTHRHRLGPNYLHIPVNCPYRARVANYQRDGPMCMQDNQGGAPNYYPNSFGAPEQQPSALEHSIQYSGEVRRFNTANDDNVTQVRAFYVNVLNEEQRKRLCENIAGHLKDAQIFIQKKAVKNFTEVHPDYGSHIQALLDKYNAEKPKNAIHTFVQSGSHLAAREKANL
In the case of B1, the “effect on proliferation of HT-29 cells vs control-treated cells” value with HT-29 cells [8] is on record as “reduced the proliferation”.
